From the supplement of paper PMC10307832

Columns and labels:
Assay in all cases: relative viability (nuclei count vs DMSO), 5 days (fraction); higher = more cells survive
[1] = compound: CC1(C)CNc2cc(NC(=O)c3cccnc3NCc3ccncc3)ccc21 [Motesanib] + Cc1cc(Nc2cc(N3CCN(C)CC3)nc(Sc3ccc(NC(=O)C4CC4)cc3)n2)n[nH]1 [Tozasertib] (partner 0.1 µM)
In short: (§1)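 Relative viability divides the nuclei count in treated wells by that in vehicle wells. Lung cancer cell lines were seeded in 1536-well plates, dosed by pin tool the next day, and fixed and stained after 5 days in one step with final 0.05% Triton X-100, 1% formaldehyde and 1 ug/ml Hoechst. Dosing was a single drug or a fixed anchor-drug dose plus five library-drug doses (not always all listed) in √10 steps, and values are medians of duplicate plates imaged at 4×.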

[2] = compound: C[C@@]1(C(=O)Nc2ccc(F)nc2)CCCN1c1nc(Nc2cc(C3CC3)n[nH]2)c2cccn2n1 + CS(=O)(=O)CCNCc1ccc(-c2ccc3ncnc(Nc4ccc(OCc5cccc(F)c5)c(Cl)c4)c3c2)o1 [Lapatinib] (partner 2 µM)
In short: as §1

[3] = compound: C[C@@]1(C(=O)Nc2ccc(F)nc2)CCCN1c1nc(Nc2cc(C3CC3)n[nH]2)c2cccn2n1 + CC(C)C[C@H](NC(=O)[C@H](Cc1ccccc1)NC(=O)c1cnccn1)B(O)O [Bortezomib] (partner 0.002 µM)
In short: as §1

[4] = compound: CC1(C)CNc2cc(NC(=O)c3cccnc3NCc3ccncc3)ccc21 [Motesanib] + N=C(N)NC(=N)NCCc1ccccc1 [Phenformin] (partner 250 µM)
In short: as §1

Cell Line	relative viability ([1]; first compound 0.01 µM)	relative viability ([1]; first compound 0.03162 µM)	relative viability ([1]; first compound 0.1 µM)	relative viability ([1]; first compound 0.3162 µM)	relative viability ([1]; first compound 1 µM)	relative viability ([2]; first compound 0.04 µM)	relative viability ([2]; first compound 0.1265 µM)	relative viability ([2]; first compound 0.4 µM)	relative viability ([2]; first compound 1.265 µM)	relative viability ([3]; first compound 0.04 µM)	relative viability ([3]; first compound 0.1265 µM)	relative viability ([3]; first compound 0.4 µM)	relative viability ([3]; first compound 1.265 µM)	relative viability ([4]; first compound 0.01 µM)	relative viability ([4]; first compound 0.03162 µM)	relative viability ([4]; first compound 0.1 µM)	relative viability ([4]; first compound 0.3162 µM)	relative viability ([4]; first compound 1 µM)
HCC-366	0.124	0.115	0.126	0.139	0.0819	1.22	0.946	1.07	0.883	1.06	1.04	1	0.802	0.628	0.53	0.619	0.643	0.587
HCC-827	0.405	0.425	0.464	0.48	0.431	0.224	0.214	0.17	0.175	1.07	1.03	0.971	0.926	0.449	0.475	0.405	0.448	0.451
HOP-62	0.369	0.306	0.412	0.388	0.395	0.978	0.907	1.05	1.04	0.752	0.67	0.704	1.02	0.641	0.694	0.678	0.74	0.761
LC-2-ad	0.447	0.362	0.439	0.476	0.45	0.904	0.759	0.745	0.32	1.06	0.845	0.805	0.411	0.531	0.664	0.566	0.566	0.534
LCLC-97TM1	0.2	0.178	0.257	0.279	0.17	0.572	0.301	0.172	0.163	0.637	0.189	0.132	0.0641	0.427	0.424	0.46	0.419	0.418
LOU-NH91	0.681	0.621	0.648	0.658	0.78	0.671	0.567	0.601	0.564	0.482	0.519	0.481	0.493	0.672	0.736	0.78	0.75	0.78
LU99A	0.262	0.234	0.263	0.273	0.263	0.808	0.545	0.48	0.342	0.984	0.837	0.623	0.445	0.737	0.886	0.819	0.952	0.894
LXF-289	0.228	0.182	0.184	0.27	0.212	0.914	0.856	0.831	0.802	1.01	0.929	0.961	1	0.526	0.478	0.573	0.529	0.521
NCI-H23	0.346	0.31	0.341	0.363	0.333	0.958	0.496	0.695	0.6	0.642	0.44	0.472	0.442	0.799	0.865	0.771	0.795	0.715
NCI-H322M	0.494	0.442	0.502	0.485	0.447	0.533	0.441	0.374	0.341	1.22	0.894	1.06	1.1	0.748	0.823	0.806	0.798	0.791
NCI-H460	0.416	0.266	0.514	0.442	0.485	1.05	0.798	0.886	0.829	1.13	0.991	0.892	0.93	0.478	0.455	0.54	0.549	0.527
NCI-H520	0.37	0.371	0.453	0.45	0.447	0.98	0.841	0.826	0.875	0.621	0.446	0.501	0.483	0.538	0.671	0.468	0.587	0.499
NCI-H596	0.917	1.27	1.04	0.843	1.01	1.04	0.849	0.848	0.783	0.908	0.892	0.929	1	0.779	0.861	0.67	0.724	0.85
NCI-H647	0.304	0.239	0.285	0.404	0.359	1.07	1.03	0.84	0.457	1.15	0.9	0.706	0.791	0.491	0.554	0.462	0.657	0.524
NCI-H650	0.749	–	0.709	0.707	0.701	0.853	0.828	0.625	0.55	0.699	0.762	0.605	0.46	0.457	–	0.492	0.544	0.434
NCI-H661	0.372	0.357	0.367	0.361	0.351	0.492	0.839	0.32	0.389	0.924	1.08	0.653	0.819	0.292	0.268	0.28	0.292	0.268
NCI-H727	0.603	0.574	0.638	0.645	0.577	0.692	0.371	0.247	0.294	0.763	0.385	0.339	0.338	0.408	0.613	0.664	0.587	0.487
NCI-H838	0.296	0.244	0.255	0.236	0.249	0.895	0.85	0.597	0.622	0.807	0.687	0.498	0.547	0.547	0.667	0.514	0.745	0.656

Cell Line	relative viability ([1]; first compound 0.01 µM)	relative viability ([1]; first compound 0.03162 µM)	relative viability ([1]; first compound 0.1 µM)	relative viability ([1]; first compound 0.3162 µM)	relative viability ([1]; first compound 1 µM)	relative viability ([2]; first compound 0.04 µM)	relative viability ([2]; first compound 0.1265 µM)	relative viability ([2]; first compound 0.4 µM)	relative viability ([2]; first compound 1.265 µM)	relative viability ([3]; first compound 0.04 µM)	relative viability ([3]; first compound 0.1265 µM)	relative viability ([3]; first compound 0.4 µM)	relative viability ([3]; first compound 1.265 µM)	relative viability ([4]; first compound 0.01 µM)	relative viability ([4]; first compound 0.03162 µM)	relative viability ([4]; first compound 0.1 µM)	relative viability ([4]; first compound 0.3162 µM)	relative viability ([4]; first compound 1 µM)
NCI-H1355	0.556	0.414	0.639	0.59	0.448	0.908	0.831	0.711	0.654	1.15	1.04	0.948	0.969	0.436	0.416	0.49	0.482	0.475
NCI-H1437	0.398	0.375	0.393	0.423	0.408	0.626	0.445	0.369	0.496	0.398	0.521	0.328	0.276	0.287	0.282	0.282	0.316	0.305
NCI-H1650	0.467	0.381	0.438	0.491	0.439	0.894	0.679	0.656	0.402	0.185	0.248	0.185	0.174	0.489	0.304	0.394	0.417	0.403
NCI-H1651	0.67	0.655	0.754	0.732	0.797	0.707	0.706	0.693	0.746	0.956	0.871	0.864	0.825	0.295	0.367	0.342	0.352	0.339
NCI-H1666	0.665	0.599	0.634	0.6	0.617	0.455	0.391	0.237	0.296	0.678	0.434	0.455	0.444	0.558	0.552	0.591	0.607	0.612
NCI-H1734	0.312	0.253	–	0.25	0.254	1	0.814	0.817	0.98	0.856	0.781	0.641	0.577	0.36	0.368	–	0.36	0.468
NCI-H1755	0.498	0.588	0.568	0.652	0.537	1.02	0.864	0.858	0.994	0.957	0.838	0.85	0.881	0.618	0.631	0.665	0.747	0.619
NCI-H1915	0.401	0.408	0.478	0.456	0.434	0.964	0.999	1.01	0.994	1.06	0.95	0.952	1.01	0.395	0.362	0.249	0.375	0.357
NCI-H1975	0.771	0.65	0.773	0.711	0.648	0.844	0.88	0.601	0.594	0.344	0.34	0.299	0.308	0.407	0.391	0.393	0.409	0.441
NCI-H1993	0.603	0.614	0.552	0.501	0.605	0.797	–	0.663	0.592	0.797	–	0.615	0.674	0.489	0.501	0.516	0.564	0.451
NCI-H2009	0.731	0.705	0.747	0.691	0.721	1.04	1.02	0.856	0.607	1.13	1.17	0.931	0.875	0.491	0.36	0.544	0.481	0.487
NCI-H2023	0.379	0.309	0.346	0.325	0.286	0.722	0.542	0.259	0.236	0.912	0.821	0.62	0.244	0.387	0.297	0.443	0.421	0.463
NCI-H2085	0.852	0.749	0.886	0.818	0.797	0.808	0.639	0.661	0.62	1.04	0.927	0.834	0.945	0.745	0.759	0.756	0.781	0.759
NCI-H2087	0.208	0.204	0.261	0.208	0.258	1.09	0.958	0.88	0.945	0.778	0.825	0.624	0.631	0.475	0.411	0.575	0.489	0.484
NCI-H2126	0.883	0.922	0.915	0.855	0.867	0.693	0.454	0.376	0.399	1.08	0.861	0.769	0.746	0.525	0.557	0.511	0.567	0.579
NCI-H2228	0.355	0.184	0.289	0.272	0.251	1.18	0.721	0.908	0.578	1.25	0.731	0.835	0.751	0.26	0.329	0.257	0.394	0.208
NCI-H2347	0.466	0.445	0.548	0.524	0.443	0.955	0.874	0.842	0.959	1.05	0.654	0.916	0.765	0.419	0.45	0.372	0.502	0.466
NCI-H2405	–	0.602	0.814	0.769	0.784	0.762	0.706	0.76	0.744	1	0.682	0.835	0.896	–	0.265	0.404	0.402	0.422
